In patent US9156826B2, “Asymmetrical reversible neuromuscular blocking agents of ultra-short, short, or intermediate duration” (Cornell University, priority 2012, dated 2015):
Read-outs that look alike come from different tables or passages of the source.

What was measured:
[1] = tested on: twitch responses of the extensor digitorum of the foot (peroneal nerve stimulation); assay: Neuromuscular blocking potency and duration: twitch blockade dose-response in anesthetized rhesus monkeys; assay type: in vivo, rhesus monkey (Macaca mulatta); details: for ED95: Macaca mulatta; for Duration (min ± SD): at the actual dose administered, injection to recovery of twitch to 95% of control
Procedure: (§1) Selected NMBA compounds were tested as described in PCT/US2010/000796 application by an inventor herein, published as WO2010/107488, which is incorporated by reference, see pages 66-78. Dose-response curves for twitch blockade by test compounds were generated as described. […] Successive doses were separated by at least three estimated half lives beyond complete recovery of the previous dose to TOF of 110-120%, which is normal for these monkeys. Only the first one or two doses yielding 5 to 99% blockade were included from any single experiment for computation of dose-response data. Comparative studies of spontaneous recovery versus antagonism/reversal were done at least 3 estimated half-lives following dose-response studies. ED50 and ED95 were computed from the regression of log dose vs. the logit of percentage blockade of twitch.
Experiments were approved by the Institutional Animal Care and Use Committee of Weill Medical College of Cornell University (New York, N.Y.) and of Albany Medical College (Albany, N.Y.), where the studies were conducted. A colony of 10 adult male monkeys (Macaca mulatta) weighing 8-18 kg was studied at ˜6 week intervals. Animals were housed and cared for in accordance with the Guide for Care and Use of Laboratory Animals (National Research Council, Washington, D.C.). They were fed a standard Old World monkey diet, enriched with fruits and vegetables, and other dietary novelties and were followed throughout the study to verify normal health by physical examination, body weight, and clinical laboratory studies (Complete Blood Count, Blood Urea Nitrogen and creatinine, and liver function tests).
(§2) On the day of each study, monkeys received ketamine (7-10 mg/kg i.m.) followed by tracheal intubation under topical anesthesia with 4% lidocaine. Ventilation was controlled at 10 mL/kg and 20 breaths/min with isoflurane (1.0-2.0%) and N2O/O2 (2:1 mixture). Ringers lactate was administered at ˜10 ml kg^−1 h^−1. Arterial pressure was monitored from a femoral, superficial tibial, or radial (22 gauge) cannula. Heart rate was measured by tachograph from the arterial pulse wave. Core temperature was kept at 36.5-38.0° C. by warming blankets. Electrocardiogram and pulse oximetry were monitored continuously.
(§3) Needle electrodes (25 gauge) transmitting square-wave pulses of 0.2 msec duration at supramaximal voltage which were generated by a Grass S-88 stimulator (Grass Instruments, Quincy, Mass.) were placed at the peroneal nerve at the knee to elicit twitch responses of the extensor digitorum of the foot at 0.15 Hz. A small slip (10-20%) of the tendon was dissected free under sterile technique and tied to a Grass FT 10 force transducer (Grass Instruments, Quincy, Mass.) at a baseline tension of 50 gm. Train-of four stimulation (TOF, 2 Hz for 2 sec) was interposed at appropriate points, especially 1-2 min prior to NMBA dosing and following recovery of twitch to 95% of baseline, where TOF was subsequently evaluated every 1-2 min.
Recordings of circulatory and neuromuscular data were made on a Grass 7B polygraph (Grass Instruments). A baseline period of 15-20 min was allowed for stabilization of recordings prior to dosing.^2
Dose-response curves for twitch blockade by gantacurium, CW 002, CW 011, cisatracurium, CW002-Cys, NB 938-69, NB 1064-81, NB 802-17 (CW 001), NB 832-65, and NB 1163-79, structures of which are all shown above, were generated as follows. […] Successive doses were separated by at least three estimated half lives beyond complete recovery of the previous dose to TOF of 110-120%, which is normal for these monkeys. Only the first one or two doses yielding 5 to 99% blockade were included from any single experiment for computation of dose-response data.
ED 50 and ED 95 were computed from the regression of log dose vs. the logit of percentage blockade of twitch.

[2] = tested on: twitch responses of the extensor digitorum of the foot (peroneal nerve stimulation); assay: Spontaneous recovery versus reversal of neuromuscular blockade by cysteine in monkeys; assay type: in vivo, rhesus monkey (Macaca mulatta); details: Table 1; reversal of the blockade by cysteine
Procedure: as §1, §2, §3
Comparative studies of spontaneous recovery versus antagonism/reversal were done at least 3 estimated half-lives following dose-response studies.

[3] = Table 1, calculated dose for 95% block of twitch, monkeys, read-out: ED 95
[4] = Table 3, dose 0.064 ± 0.010 (gantacurium) or 0.060 ± 0.012 mg/kg (CW1759-50)

SMILES	ED95 [1, 3] [mg/kg]	Duration (min ± SD) ([1]; Table 1) [min]	Reversibility (Cysteine) [2]	ED95 [1] [mg/kg]	Blockade (%) [1, 4] [%]	Onset [1, 4] [s]	Total Duration [1, 4] [min]	ED95 in a control study ([1]; rhesus monkeys, control study for comparison) [mg·kg]
COc1cc2c(cc1OC)[C@@H](Cc1cc(OC)c(OC)c(OC)c1)[N@+](C)(CCCOC(=O)/C(Cl)=C/C(=O)OCCC[N+]1(Cc3cc(OC)c(OC)c(OC)c3)CCCC1)CC2 [Compound 1326-69]	0.11	4.5 ± 1.8	Yes	–	–	–	–	–
COc1cc2c(cc1OC)[C@@H](Cc1cc(OC)c(OC)c(OC)c1)[N@+](C)(CCCOC(=O)/C(Cl)=C/C(=O)OCCC[N+]1(Cc3cc(OC)c(OC)c(OC)c3)CCCCC1)CC2 [Compound 1343-05]	–	6.7 ± 2.1	Yes	0.07	–	–	–	–
COc1ccc(C[C@@H]2c3cc(OC)c(OC)cc3CC[N@@+]2(C)CCCOC(=O)/C=C\C(=O)OCCC[N+]2(Cc3cc(OC)c(OC)c(OC)c3)CCCC2)cc1OC [Compound 1343-13]	–	8.8 ± 2.6	Yes	0.06	–	–	–	–
COc1ccc(C[C@@H]2c3cc(OC)c(OC)cc3CC[N@@+]2(C)CCCOC(=O)/C=C\C(=O)OCCC[N+]2(Cc3ccc(OC)c(OC)c3)CCCC2)cc1OC [Compound 1390-80]	0.07	9.0 ± 2.1	Yes	–	–	–	–	–
COc1ccc(C[C@@H]2c3cc(OC)c(OC)cc3CC[N@@+]2(C)CCCOC(=O)/C=C\C(=O)OCCC[N+]2(Cc3ccc(OC)c(OC)c3OC)CCCC2)cc1OC [Compound 1449-35]	–	5	Yes	0.126	–	–	–	–
COc1ccc(C[N+]2(CCCOC(=O)/C=C\C(=O)OCCC[N@+]3(C)CCc4cc(OC)c(OC)cc4[C@H]3Cc3ccc(OC)c(OC)c3)CCCC2)cc1 [Compound 1521-28]	–	6.5	Yes	0.335	–	–	–	–
COc1ccc(C[C@@H]2c3cc(OC)c(OC)cc3CC[N@@+]2(C)CCCOC(=O)/C(Cl)=C/C(=O)OCCC[N+]2(Cc3ccc(OC)c(OC)c3)CCOCC2)cc1OC [Compound 1521-74]	–	4.3 ± 1.1	Yes	0.16	–	–	–	–
COc1ccc(C[C@@H]2c3cc(OC)c(OC)cc3CC[N@@+]2(C)CCCOC(=O)/C=C\C(=O)OCCC[N+]2(Cc3ccc4c(c3)OCCO4)CCOCC2)cc1OC [Compound 1521-78]	–	12.1 ± 2.1	Yes	0.05	–	–	–	–
COc1ccc(C[N+]2(CCCOC(=O)/C=C(\Cl)C(=O)OCCC[N@+]3(C)CCc4cc(OC)c(OC)cc4[C@H]3Cc3cc(OC)c(OC)c(OC)c3)CCOCC2)cc1OC [Compound 1566-01]	–	8	Yes	0.61	–	–	–	–
COc1ccc(C[C@@H]2c3cc(OC)c(OC)cc3CC[N@@+]2(C)CCCOC(=O)/C(Cl)=C/C(=O)OCCC[N+]2(Cc3cc(OC)c(OC)c(OC)c3)CCOCC2)cc1OC [Compound 1566-22]	–	3.7 ± 0.3	Yes	0.19	–	–	–	–
COc1cc2c(cc1OC)[C@@H](Cc1cc(OC)c(OC)c(OC)c1)[N@+](C)(CCCOC(=O)/C(Cl)=C/C(=O)OCCC[N+]1(Cc3ccc4c(c3)OCCO4)CCOCC1)CC2 [Compound 1598-46]	–	6.8 ± 2.3	Yes	0.1	–	–	–	–
COc1ccc(C[C@@H]2c3cc(OC)c(OC)cc3CC[N@@+]2(C)CCCOC(=O)/C=C\C(=O)OCCC[N+]2(Cc3ccc(OC)cc3)CCOCC2)cc1 [Compound 1625-05]	–	6	Yes	0.09	–	–	–	–
COc1ccc(C[C@@H]2c3cc(OC)c(OC)cc3CC[N@@+]2(C)CCCOC(=O)/C=C\C(=O)OCCC[N+]2(Cc3cc(OC)c(OC)c(OC)c3)CCOCC2)cc1 [Compound 1759-58]	–	6 to 8	Yes	0.064	–	–	–	–
COc1ccc2c(c1)CC[N@@+](C)(CCCOC(=O)/C=C\C(=O)OCCC[N+]1(Cc3ccc(OC)c(OC)c3)CCOCC1)[C@@H]2Cc1ccc(OC)c(OC)c1 [Compound 1759-85]	0.22	5.4 ± 1.3	Yes	–	–	–	–	–
COc1cc2c(cc1OC)[C@H](c1cc(OC)c(OC)c(OC)c1)[N@@+](C)(CCCOC(=O)/C=C(\Cl)C(=O)OCCC[N@+]1(C)CCc3cc(OC)c(OC)cc3[C@H]1Cc1cc(OC)c(OC)c(OC)c1)CC2 [Gantacurium, gantacurium, reference compound]	–	–	–	–	99.2 ± 0.5	97.1 ± 11.7	7.4 ± 1.9	0.063 ± 0.0021
